Data set [1] in a line: Measurement of LogP values by HPLC on reversed phase columns (EEC directive 79/831 Annex V.A8). Particulars: reversed phase HPLC column. It counts as physicochemical. An outline of the steps: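 Calibrated with straight-chain alkan-2-ones (3–16 carbons) of known LogP, using retention times with linear interpolation between successive alkanones. Where one method gives several LogP values, all are listed, joined by "+". Lambda-max taken from UV spectra (200–400 nm) at chromatographic peak maxima.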

Another data set has as its system Puccinia recondita. The experiment in a line: Example B: in vivo preventive test on Puccinia recondita (brown rust on wheat). Conditions: 264 h, 500 ppm of active ingredient, wheat plants, preventive spray, evaluated 11 days after inoculation, read-out: efficacy. Here is the method:
Example B: In Vivo Preventive Test on Puccinia recondita (Brown Rust on Wheat) [table] The active ingredients are made soluble and homogenized in a mixture of Dimethyl sulfoxide/Acetone//Tween® 80 and then diluted in water to the desired concentration. The young plants of wheat are treated by spraying the active ingredient prepared as described above. Control plants are treated only with an aqueous solution of Acetone/Dimethyl sulfoxide/Tween® 80. After 24 hours, the plants are contaminated by spraying the leaves with an aqueous suspension of Puccinia recondita spores. The contaminated wheat plants are incubated for 24 hours at 20° C. and at 100% relative humidity and then for 10 days at 20° C. and at 70-80% relative humidity. The test is evaluated 11 days after the inoculation. 0% means an efficacy which corresponds to that of the control plants while an efficacy of 100% means that no disease is observed.

Another data set has as its system Botrytis cinerea. Nature of the data set: Example A: in vivo preventive test on Botrytis cinerea (grey mould), gherkin. Particulars: gherkin plants, preventive spray, evaluated 4 to 5 days after inoculation, read-out: efficacy. The protocol: Example A: In Vivo Preventive Test on Botrytis cinerea (Grey Mould) [table] The active ingredients are made soluble and homogenized in a mixture of Dimethyl sulfoxide/Acetone//Tween® 80 and then diluted in water to the desired concentration. The young plants of gherkin are treated by spraying the active ingredient prepared as described above. Control plants are treated only with an aqueous solution of Acetone/Dimethyl sulfoxide/Tween® 80. After 24 hours, the plants are contaminated by spraying the leaves with an aqueous suspension of Botrytis cinerea spores. The contaminated gherkin plants are incubated for 4 to 5 days at 17° C. and at 90% relative humidity. The test is evaluated 4 to 5 days after the inoculation. 0% means an efficacy which corresponds to that of the control plants while an efficacy of 100% means that no disease is observed.

The test system of the next data set is Sphaerotheca fuliginea. Nature of the data set: Example M: in vivo preventive test on Sphaerotheca (cucumbers); comparison of phenoxy-pyridyl compounds vs. known phenoxy-phenyl compounds. Conditions: Podosphaera fuliginea, 168 h, rate of application 10 ppm, evaluated 7 days after inoculation, read-out: Efficacy in %. The protocol:
Example M: In Vivo Preventive Test on Sphaerotheca (Cucumbers); Comparison of Phenoxy-pyridyl Compounds According to the Invention Vs. Known Phenoxy-phenyl Compounds [table] To produce a suitable preparation of active compound, 1 part by weight of active compound is mixed with the above stated amounts of solvent and emulsifier, and the concentrate is diluted with water to the desired concentration. To test for preventive activity, young plants are sprayed with the preparation of active compound at the stated rate of application. After the spray coating has dried on, the plants are inoculated with an aqueous spore suspension of Sphaerotheca fuliginea. The plants are then placed in a greenhouse at approximately 23° C. and a relative atmospheric humidity of approximately 70%. The test is evaluated 7 days after the inoculation. 0% means an efficacy which corresponds to that of the untreated control, while an efficacy of 100% means that no disease is observed. [table]

The test system of data set [2] is Blumeria graminis f.sp. hordei. The experiment in a line: Example I: in vivo preventive Blumeria test (barley). Particulars: 168 h, 500 ppm of active ingredient, preventive spray, evaluated 7 days after inoculation, read-out: efficacy. Here is the method: Example I: In Vivo Preventive Blumeria Test (Barley) [table] To produce a suitable preparation of active compound, 1 part by weight of active compound or active compound combination is mixed with the stated amounts of solvent and emulsifier, and the concentrate is diluted with water to the desired concentration. To test for preventive activity, young plants are sprayed with the preparation of active compound or active compound combination at the stated rate of application. After the spray coating has been dried, the plants are dusted with spores of Blumeria graminis f.sp. hordei. The plants are placed in the greenhouse at a temperature of approximately 18° C. and a relative atmospheric humidity of approximately 80% to promote the development of mildew pustules. The test is evaluated 7 days after the inoculation. 0% means an efficacy which corresponds to that of the untreated control, while an efficacy of 100% means that no disease is observed.

Another data set concerns Leptosphaeria nodorum. The experiment in a line: Example J: in vivo preventive Leptosphaeria nodorum test (wheat). Particulars: Parastagonospora nodorum, 192 h, 500 ppm of active ingredient, preventive spray, evaluated 8 days after inoculation, read-out: efficacy. The protocol:
Example J: In Vivo Preventive Leptosphaeria nodorum Test (Wheat) [table] To produce a suitable preparation of active compound, 1 part by weight of active compound or active compound combination is mixed with the stated amounts of solvent and emulsifier, and the concentrate is diluted with water to the desired concentration. To test for preventive activity, young plants are sprayed with the preparation of active compound or active compound combination at the stated rate of application. After the spray coating has been dried, the plants are sprayed with a spore suspension of Leptosphaeria nodorum. The plants remain for 48 hours in an incubation cabinet at approximately 20° C. and a relative atmospheric humidity of approximately 100%. The plants are placed in the greenhouse at a temperature of approximately 25° C. and a relative atmospheric humidity of approximately 80%. The test is evaluated 8 days after the inoculation. 0% means an efficacy which corresponds to that of the untreated control, while an efficacy of 100% means that no disease is observed.

In the next data set the test system is Septoria tritici. Nature of the data set: Example L: in vivo preventive Septoria tritici test (wheat). Particulars: Zymoseptoria tritici, 504 h, 500 ppm of active ingredient, preventive spray, evaluated 21 days after inoculation, read-out: efficacy. The protocol: Example L: In Vivo Preventive Septoria tritici Test (Wheat) [table] To produce a suitable preparation of active compound, 1 part by weight of active compound or active compound combination is mixed with the stated amounts of solvent and emulsifier, and the concentrate is diluted with water to the desired concentration. To test for preventive activity, young plants are sprayed with the preparation of active compound or active compound combination at the stated rate of application. After the spray coating has been dried, the plants are sprayed with a spore suspension of Septoria tritici. The plants remain for 48 hours in an incubation cabinet at approximately 20° C. and a relative atmospheric humidity of approximately 100% and afterwards for 60 hours at approximately 15° C. in a translucent incubation cabinet at a relative atmospheric humidity of approximately 100%. The plants are placed in the greenhouse at a temperature of approximately 15° C. and a relative atmospheric humidity of approximately 80%. The test is evaluated 21 days after the inoculation. 0% means an efficacy which corresponds to that of the untreated control, while an efficacy of 100% means that no disease is observed.

The mark [3] stands for this setting: method [a]: LC-UV, acidic range, 0.1% formic acid in water and acetonitrile as eluent.

Molecules are shown by their SMILES.

In the case of `Cc1ccc(Oc2ccc(C(O)Cn3cncn3)c(Cl)n2)cc1Cl` (stereo not shown) [I.16], the chromatographic logP (in general, lipophilicity estimated from chromatographic retention) in data set [1] (setting [3]) was found to be 2.73. Moreover, the pest or weed control at 500 ppm in the data set on Puccinia recondita lay in the range of 80 to 89%. In the data set with Botrytis cinerea, the pest or weed control was 90 to 100%. Further, the pest or weed control at 10 ppm in the data set with Sphaerotheca fuliginea is 77%.
In turn, `C[C@@](O)(Cn1cncn1)c1cnc(Oc2ccc(Cl)cc2)cc1C(F)(F)F` [I.45] came in with a chromatographic logP in data set [1] (setting [3]) of 2.84. For the same compound, the pest or weed control at 500 ppm (in the data set on Puccinia recondita; in data set [2]; in the data set with Leptosphaeria nodorum; in the data set with Septoria tritici) was 90 to 100% in each case. In the data set on Botrytis cinerea, the pest or weed control fell in the range of 90 to 100%. In addition, the pest or weed control at 10 ppm in the data set with Sphaerotheca fuliginea is 99%.
On to `OC(Cn1cncn1)c1ccc(Oc2ccc(Cl)cc2)nc1C(F)(F)F` (stereo not shown) [I.03, 1-[6-(4-chlorophenoxy)-2-(trifluoromethyl)-3-pyridyl]-2-(1,2,4-triazol-1-yl)ethanol], for which the chromatographic logP in data set [1] (setting [3]) worked out at 2.7. Also, the pest or weed control at 500 ppm with Puccinia recondita is 90 to 100%; with Leptosphaeria nodorum, 80 to 89%; in the data set with Septoria tritici, 90 to 100%. Besides, the pest or weed control with Botrytis cinerea fell in the range of 90 to 100%.
In data set [1] (setting [3]), `OC(Cn1cncn1)c1ccc(Oc2ccc(Cl)cc2)nc1Cl` (stereo not shown) [I.14] came in with a chromatographic logP of 2.42. Also, the pest or weed control at 500 ppm in the data set on Puccinia recondita is 90 to 100%; in data set [2], 90 to 100%; in the data set on Leptosphaeria nodorum, 70 to 79%. Besides, the pest or weed control in the data set on Botrytis cinerea is 90 to 100%. In the data set on Sphaerotheca fuliginea, the pest or weed control at 10 ppm came to 83%.
In data set [1] (setting [3]), `OC(Cn1cncn1)c1cnc(Oc2ccc(S(F)(F)(F)(F)F)cc2)cc1C(F)(F)F` (stereo not shown) [I.36] displayed a chromatographic logP of 3.15. Moreover, the pest or weed control at 500 ppm (in the data set with Puccinia recondita; in data set [2]; in the data set on Leptosphaeria nodorum; in the data set on Septoria tritici) was 90 to 100% each time. The pest or weed control at 10 ppm with Sphaerotheca fuliginea worked out at 100%.
In the case of `CC(O)(Cn1cncn1)c1cnc(Oc2ccccc2)cc1Cl` (stereo not shown) [I.05], the chromatographic logP in data set [1] (setting [3]) stood at 2.1; in data set [1] (method [b]: LC-UV, neutral range, 0.001 molar ammonium acetate solution in water and acetonitrile as eluent), 2.06. Further, the pest or weed control at 500 ppm in the data set on Puccinia recondita lay in the range of 90 to 100%; in data set [2], 90 to 100%; with Leptosphaeria nodorum, 80 to 89%; in the data set on Septoria tritici, 90 to 100%. The pest or weed control in the data set with Botrytis cinerea lay in the range of 90 to 100%. Further, the pest or weed control at 10 ppm in the data set on Sphaerotheca fuliginea amounted to 71%.
In data set [1] (method [a], compounds of formula (VII), Table 4), `O=C(Cn1cncn1)c1ccc(Oc2ccc(Cl)cc2)nc1C(F)(F)F` [VII.01, 1-[6-(4-chlorophenoxy)-2-(trifluoromethyl)-3-pyridyl]-2-(1,2,4-triazol-1-yl)ethanone] yielded a chromatographic logP of 2.92. Moreover, the pest or weed control at 500 ppm (in the data set with Puccinia recondita; in data set [2]; in the data set on Leptosphaeria nodorum; with Septoria tritici) was 90 to 100% each time. In addition, the pest or weed control at 10 ppm in the data set with Sphaerotheca fuliginea was found to be 78%.
Compound `CC(O)(Cn1cncn1)c1ccc(Oc2ccc(C(F)F)cc2)nc1Cl` (stereo not shown) [I.39] returned a chromatographic logP in data set [1] (setting [3]) of 2.41. Besides, the pest or weed control at 500 ppm in the data set on Puccinia recondita fell in the range of 90 to 100%; in data set [2], 90 to 100%; in the data set with Leptosphaeria nodorum it was 70 to 79%; in the data set with Septoria tritici, 70 to 79%. Moreover, the pest or weed control in the data set with Botrytis cinerea is 90 to 100%. Besides, the pest or weed control at 10 ppm in the data set with Sphaerotheca fuliginea came to 97%.
In data set [1] (setting [3]), `OC(Cn1cncn1)(c1ccc(Oc2ccc(Cl)cc2)nc1C(F)(F)F)C1CC1` (stereo not shown) [I.91, 1-[6-(4-chlorophenoxy)-2-(trifluoromethyl)-3-pyridyl]-1-cyclopropyl-2-(1,2,4-triazol-1-yl)ethanol] yielded a chromatographic logP of 3.26. The pest or weed control at 500 ppm in the data set on Puccinia recondita was in the range of 90 to 100%; in data set [2], 90 to 100%; in the data set on Septoria tritici it was 80 to 89%. Moreover, the pest or weed control with Botrytis cinerea is 90 to 100%.
In data set [1] (setting [3]), `CC(O)(Cn1cncn1)c1ccc(Oc2ccc(Cl)cc2)nc1C(F)(F)F` (stereo not shown) [I.01, 2-[6-(4-chlorophenoxy)-2-(trifluoromethyl)-3-pyridyl]-1-(1,2,4-triazol-1-yl)propan-2-ol] showed a chromatographic logP of 2.88. Moreover, the pest or weed control at 500 ppm (in the data set with Puccinia recondita; in data set [2]; with Leptosphaeria nodorum; with Septoria tritici) was 90 to 100% each time. For the same compound, the pest or weed control in the data set with Botrytis cinerea was in the range of 90 to 100%. For the same compound, the pest or weed control at 10 ppm in the data set on Sphaerotheca fuliginea was 100%.
Turning to `CC(O)(Cn1cncn1)c1ccc(Oc2ccc(S(F)(F)(F)(F)F)cc2)nc1Cl` (stereo not shown) [I.35], in data set [1] (setting [3]), the chromatographic logP worked out at 3.17. Also, the pest or weed control at 500 ppm in the data set with Puccinia recondita is 90 to 100%; in data set [2] it was 90 to 100%; in the data set with Leptosphaeria nodorum it was 80 to 89%; with Septoria tritici, 90 to 100%. In addition, the pest or weed control at 10 ppm in the data set on Sphaerotheca fuliginea turned out to be 100%.
`OC(Cn1cncn1)c1cnc(Oc2ccc(C(F)(F)F)cc2)cc1C(F)(F)F` (stereo not shown) [I.47]: the chromatographic logP in data set [1] (setting [3]) is 2.84. Besides, the pest or weed control at 500 ppm (with Puccinia recondita; in data set [2]; in the data set with Leptosphaeria nodorum; with Septoria tritici) was 90 to 100% throughout. The pest or weed control in the data set on Botrytis cinerea fell in the range of 80 to 89%. The pest or weed control at 10 ppm in the data set on Sphaerotheca fuliginea amounted to 100%.
`CC(O)(Cn1cncn1)c1cnc(Oc2ccc(Cl)cc2)cc1C(F)(F)F` (stereo not shown) [I.02, 2-[6-(4-chlorophenoxy)-4-(trifluoromethyl)-3-pyridyl]-1-(1,2,4-triazol-1-yl)propan-2-ol] registered a chromatographic logP in data set [1] (setting [3]) of 2.9. The pest or weed control at 500 ppm (in the data set on Puccinia recondita; in data set [2]; in the data set on Leptosphaeria nodorum; in the data set with Septoria tritici) was 90 to 100% each time.

Source of the values: patent US10485236B2, “Triazole derivatives, intermediates thereof and their use as fungicides” (Bayer CropScience Aktiengesellschaft, priority 2015, dated 2019).
